Measured values reported in ChEMBL document CHEMBL4507278 (2021).

Tests used:
[1] = molecular target: Myosin light chain kinase, smooth muscle (Homo sapiens) (UniProt Q15746); details: Compound concentration 1000.0 nM
[2] = molecular target: Serine/threonine-protein kinase PknB (Mycobacterium tuberculosis) (UniProt P9WI81); details: Compound concentration 1000.0 nM
[3] = molecular target: Ephrin type-B receptor 4 (Homo sapiens) (UniProt P54760); details: Compound concentration 1000.0 nM
[4] = system: Phosphatidylinositol 4,5-bisphosphate 3-kinase catalytic subunit alpha isoform (Homo sapiens), P42336 [Q546K]; details: Compound concentration 1000.0 nM
[5] = molecular target: Calcium-dependent protein kinase 1 (Plasmodium falciparum) (UniProt P62344); details: Compound concentration 1000.0 nM
[6] = molecular target: D(2) dopamine receptor (Homo sapiens) (UniProt P14416); details: Compound concentration 10.0 uM
[7] = molecular target: Cytoplasmic tyrosine-protein kinase BMX (Homo sapiens) (UniProt P51813); details: Compound concentration 1000.0 nM
[8] = molecular target: Casein kinase I isoform epsilon (Homo sapiens) (UniProt P49674); details: Compound concentration 1000.0 nM
[9] = system: Epidermal growth factor receptor (Homo sapiens), P00533 [T790M]; details: Compound concentration 1000.0 nM
[10] = molecular target: 5-hydroxytryptamine receptor 1E (Homo sapiens) (UniProt P28566); details: Compound concentration 10.0 uM
[11] = molecular target: BDNF/NT-3 growth factors receptor (Homo sapiens) (UniProt Q16620); details: Compound concentration 1000.0 nM
[12] = molecular target: Phosphatidylinositol 4,5-bisphosphate 3-kinase catalytic subunit beta isoform (Homo sapiens) (UniProt P42338); details: Compound concentration 1000.0 nM
Sequence of Phosphatidylinositol 4,5-bisphosphate 3-kinase catalytic subunit beta isoform (Homo sapiens) (P42338 whole entry, looked up, canonical isoform): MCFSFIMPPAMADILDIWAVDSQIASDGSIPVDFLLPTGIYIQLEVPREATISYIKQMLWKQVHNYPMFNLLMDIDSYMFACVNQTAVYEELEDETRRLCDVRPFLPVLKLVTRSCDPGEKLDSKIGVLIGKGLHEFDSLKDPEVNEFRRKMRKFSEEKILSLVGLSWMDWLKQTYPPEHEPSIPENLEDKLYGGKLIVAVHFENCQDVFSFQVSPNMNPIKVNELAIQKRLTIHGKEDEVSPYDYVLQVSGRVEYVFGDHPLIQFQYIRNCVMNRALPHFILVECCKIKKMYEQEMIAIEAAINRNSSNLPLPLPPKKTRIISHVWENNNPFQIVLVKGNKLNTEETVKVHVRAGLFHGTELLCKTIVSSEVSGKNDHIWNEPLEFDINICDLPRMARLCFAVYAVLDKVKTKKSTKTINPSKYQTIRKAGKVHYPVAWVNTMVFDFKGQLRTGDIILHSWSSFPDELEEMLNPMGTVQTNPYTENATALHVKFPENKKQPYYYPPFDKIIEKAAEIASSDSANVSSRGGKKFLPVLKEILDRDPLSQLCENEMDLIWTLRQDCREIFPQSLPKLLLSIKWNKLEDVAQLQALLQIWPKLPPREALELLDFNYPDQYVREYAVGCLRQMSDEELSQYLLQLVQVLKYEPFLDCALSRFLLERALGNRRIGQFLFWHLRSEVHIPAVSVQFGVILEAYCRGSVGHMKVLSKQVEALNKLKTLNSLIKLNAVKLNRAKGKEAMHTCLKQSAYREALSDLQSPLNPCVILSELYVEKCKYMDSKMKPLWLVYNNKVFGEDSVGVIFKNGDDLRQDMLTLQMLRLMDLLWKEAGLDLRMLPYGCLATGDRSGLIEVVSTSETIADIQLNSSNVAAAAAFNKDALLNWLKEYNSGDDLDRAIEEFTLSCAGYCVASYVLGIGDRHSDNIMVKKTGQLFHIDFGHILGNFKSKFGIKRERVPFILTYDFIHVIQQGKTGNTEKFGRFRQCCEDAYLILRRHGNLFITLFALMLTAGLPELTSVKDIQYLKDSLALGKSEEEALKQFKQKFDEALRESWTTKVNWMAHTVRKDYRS

[13] = molecular target: Serine/threonine-protein kinase 35 (Homo sapiens) (UniProt Q8TDR2); details: Compound concentration 1000.0 nM
[14] = molecular target: Proto-oncogene tyrosine-protein kinase receptor Ret (Homo sapiens) (UniProt P07949); details: Compound concentration 1000.0 nM
[15] = molecular target: Casein kinase I isoform gamma-3 (Homo sapiens) (UniProt Q9Y6M4); details: Compound concentration 1000.0 nM
[16] = molecular target: Receptor-interacting serine/threonine-protein kinase 1 (Homo sapiens) (UniProt Q13546); details: Compound concentration 1000.0 nM
[17] = molecular target: GABA-A receptor; anion channel (Rattus norvegicus) (UniProt O09028+P15431+P18506+P18508+P19969+P20236+P23574+P23576+P28471+P28473+P30191+P62813+P63079+P63138+Q91ZM7+Q9ES14); details: Compound concentration 10.0 uM
[18] = system: Epidermal growth factor receptor (Homo sapiens), P00533 [L861Q]; details: Compound concentration 1000.0 nM
[19] = molecular target: Serine/threonine-protein kinase LATS1 (Homo sapiens) (UniProt O95835); details: Compound concentration 1000.0 nM
[20] = system: Fibroblast growth factor receptor 3 (Homo sapiens), P22607 [G697C]; details: Compound concentration 1000.0 nM
[21] = molecular target: Serine/threonine-protein kinase Chk2 (Homo sapiens) (UniProt O96017); details: Compound concentration 1000.0 nM
[22] = molecular target: Ephrin type-B receptor 3 (Homo sapiens) (UniProt P54753); details: Compound concentration 1000.0 nM
Sequence of Ephrin type-B receptor 3 (Homo sapiens) (P54753 whole entry): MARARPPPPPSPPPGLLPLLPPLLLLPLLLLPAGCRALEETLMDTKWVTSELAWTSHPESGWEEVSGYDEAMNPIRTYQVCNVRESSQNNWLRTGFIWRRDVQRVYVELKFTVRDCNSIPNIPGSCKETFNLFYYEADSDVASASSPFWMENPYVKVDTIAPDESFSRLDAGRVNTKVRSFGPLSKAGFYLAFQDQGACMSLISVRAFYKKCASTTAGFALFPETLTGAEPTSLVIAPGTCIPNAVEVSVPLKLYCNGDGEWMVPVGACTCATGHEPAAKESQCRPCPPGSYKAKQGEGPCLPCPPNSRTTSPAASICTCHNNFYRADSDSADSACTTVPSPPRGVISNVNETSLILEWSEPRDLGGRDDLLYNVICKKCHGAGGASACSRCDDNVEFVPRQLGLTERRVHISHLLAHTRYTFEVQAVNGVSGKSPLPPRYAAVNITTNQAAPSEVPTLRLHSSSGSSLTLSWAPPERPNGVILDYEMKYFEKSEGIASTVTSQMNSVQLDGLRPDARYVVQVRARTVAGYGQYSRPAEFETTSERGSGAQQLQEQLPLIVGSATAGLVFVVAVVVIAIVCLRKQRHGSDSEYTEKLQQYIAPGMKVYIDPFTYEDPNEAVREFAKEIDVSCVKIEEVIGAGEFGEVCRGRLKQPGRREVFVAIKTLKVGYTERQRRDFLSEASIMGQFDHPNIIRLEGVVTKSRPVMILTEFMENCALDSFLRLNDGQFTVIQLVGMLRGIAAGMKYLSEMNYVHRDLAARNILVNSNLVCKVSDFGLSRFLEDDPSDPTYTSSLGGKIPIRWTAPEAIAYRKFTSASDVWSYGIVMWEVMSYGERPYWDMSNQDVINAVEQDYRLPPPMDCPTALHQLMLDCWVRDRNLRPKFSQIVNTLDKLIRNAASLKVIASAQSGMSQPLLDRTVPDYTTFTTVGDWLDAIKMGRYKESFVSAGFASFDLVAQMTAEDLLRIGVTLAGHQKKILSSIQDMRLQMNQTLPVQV

[23] = molecular target: Serine/threonine-protein kinase tousled-like 1 (Homo sapiens) (UniProt Q9UKI8); details: Compound concentration 1000.0 nM
[24] = molecular target: Leucine-rich repeat serine/threonine-protein kinase 2 (Homo sapiens) (UniProt Q5S007); details: Compound concentration 1000.0 nM
[25] = molecular target: Mitogen-activated protein kinase kinase kinase 11 (Homo sapiens) (UniProt Q16584); details: Compound concentration 1000.0 nM
[26] = system: Tyrosine-protein kinase ABL1 (Homo sapiens), P00519 [Q252H]; details: Compound concentration 1000.0 nM
[27] = system: Proto-oncogene tyrosine-protein kinase receptor Ret (Homo sapiens), P07949 [V804M]; details: Compound concentration 1000.0 nM
Sequence of Proto-oncogene tyrosine-protein kinase receptor Ret (Homo sapiens), P07949 [V804M] (P07949 whole entry V804M): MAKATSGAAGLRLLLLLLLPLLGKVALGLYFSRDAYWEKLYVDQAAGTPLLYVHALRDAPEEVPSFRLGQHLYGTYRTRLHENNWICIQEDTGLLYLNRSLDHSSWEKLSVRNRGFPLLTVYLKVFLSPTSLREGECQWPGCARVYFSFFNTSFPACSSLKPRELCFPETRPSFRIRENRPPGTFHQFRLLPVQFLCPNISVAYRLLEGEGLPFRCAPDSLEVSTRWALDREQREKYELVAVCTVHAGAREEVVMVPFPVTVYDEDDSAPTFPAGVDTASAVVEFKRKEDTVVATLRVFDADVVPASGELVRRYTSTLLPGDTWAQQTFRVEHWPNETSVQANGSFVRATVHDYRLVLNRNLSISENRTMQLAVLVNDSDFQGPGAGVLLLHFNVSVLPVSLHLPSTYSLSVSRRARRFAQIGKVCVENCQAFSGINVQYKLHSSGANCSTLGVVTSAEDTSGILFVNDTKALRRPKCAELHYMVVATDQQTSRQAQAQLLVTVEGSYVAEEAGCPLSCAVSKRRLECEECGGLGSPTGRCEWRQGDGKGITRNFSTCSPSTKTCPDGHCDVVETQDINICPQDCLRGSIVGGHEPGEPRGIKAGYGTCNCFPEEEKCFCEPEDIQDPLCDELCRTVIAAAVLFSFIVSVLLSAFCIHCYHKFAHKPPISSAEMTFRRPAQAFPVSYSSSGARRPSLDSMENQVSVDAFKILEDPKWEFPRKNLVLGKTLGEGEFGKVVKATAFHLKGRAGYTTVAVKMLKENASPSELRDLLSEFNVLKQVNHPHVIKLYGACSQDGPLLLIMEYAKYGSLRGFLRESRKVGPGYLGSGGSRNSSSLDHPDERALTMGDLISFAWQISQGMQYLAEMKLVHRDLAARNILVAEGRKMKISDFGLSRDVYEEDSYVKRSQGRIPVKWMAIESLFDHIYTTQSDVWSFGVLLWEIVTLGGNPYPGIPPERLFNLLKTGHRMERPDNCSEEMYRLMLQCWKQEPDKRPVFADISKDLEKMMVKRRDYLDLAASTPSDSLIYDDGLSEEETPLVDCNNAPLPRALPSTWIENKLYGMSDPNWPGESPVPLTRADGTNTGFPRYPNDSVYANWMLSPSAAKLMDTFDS

[28] = molecular target: Dual specificity mitogen-activated protein kinase kinase 6 (Homo sapiens) (UniProt P52564); details: Compound concentration 1000.0 nM
[29] = molecular target: Kappa-type opioid receptor (Homo sapiens) (UniProt P41145); details: Compound concentration 10.0 uM
[30] = system: Proto-oncogene tyrosine-protein kinase receptor Ret (Homo sapiens), P07949 [M918T]; details: Compound concentration 1000.0 nM
[31] = molecular target: Ribosomal protein S6 kinase alpha-5 (Homo sapiens) (UniProt O75582); details: Compound concentration 1000.0 nM
[32] = molecular target: Cyclin-dependent kinase 11B (Homo sapiens) (UniProt P21127); details: Compound concentration 1000.0 nM
[33] = molecular target: Serine/threonine-protein kinase NIM1 (Homo sapiens) (UniProt Q8IY84); details: Compound concentration 1000.0 nM
[34] = molecular target: Sodium-dependent dopamine transporter (Homo sapiens) (UniProt Q01959); details: Compound concentration 10.0 uM
[35] = molecular target: Serine/threonine-protein kinase Nek4 (Homo sapiens) (UniProt P51957); details: Compound concentration 1000.0 nM
[36] = molecular target: Tyrosine-protein kinase JAK3 (Homo sapiens) (UniProt P52333); details: Compound concentration 1000.0 nM
[37] = molecular target: Serine/threonine-protein kinase PAK 2 (Homo sapiens) (UniProt Q13177); details: Compound concentration 1000.0 nM
[38] = molecular target: Fibroblast growth factor receptor 3 (Homo sapiens) (UniProt P22607); details: Compound concentration 1000.0 nM
Sequence of Fibroblast growth factor receptor 3 (Homo sapiens) (P22607 23-806 limits assumed): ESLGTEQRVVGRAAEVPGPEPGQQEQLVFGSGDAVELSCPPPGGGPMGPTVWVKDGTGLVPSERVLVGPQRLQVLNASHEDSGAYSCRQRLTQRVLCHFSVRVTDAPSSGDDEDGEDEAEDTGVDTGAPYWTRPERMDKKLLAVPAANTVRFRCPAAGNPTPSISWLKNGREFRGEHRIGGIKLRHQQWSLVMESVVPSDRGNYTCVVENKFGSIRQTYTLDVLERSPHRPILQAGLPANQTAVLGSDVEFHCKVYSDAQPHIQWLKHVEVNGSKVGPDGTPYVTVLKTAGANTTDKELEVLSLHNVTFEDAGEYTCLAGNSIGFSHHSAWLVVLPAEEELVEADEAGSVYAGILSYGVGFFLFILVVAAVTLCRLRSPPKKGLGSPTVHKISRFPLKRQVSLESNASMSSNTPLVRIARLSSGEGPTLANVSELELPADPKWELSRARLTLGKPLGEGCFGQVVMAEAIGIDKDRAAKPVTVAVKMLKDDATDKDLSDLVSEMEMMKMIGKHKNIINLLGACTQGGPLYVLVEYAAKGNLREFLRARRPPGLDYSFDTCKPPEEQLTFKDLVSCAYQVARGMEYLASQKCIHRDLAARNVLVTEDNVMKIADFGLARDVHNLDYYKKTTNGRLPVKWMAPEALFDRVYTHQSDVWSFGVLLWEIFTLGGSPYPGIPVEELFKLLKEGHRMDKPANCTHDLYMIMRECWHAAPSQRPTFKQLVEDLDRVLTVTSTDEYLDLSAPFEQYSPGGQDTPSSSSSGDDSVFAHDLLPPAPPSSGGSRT

[39] = molecular target: Serine/threonine-protein kinase SBK1 (Homo sapiens) (UniProt Q52WX2); details: Compound concentration 1000.0 nM
[40] = molecular target: Interleukin-1 receptor-associated kinase 1 (Homo sapiens) (UniProt P51617); details: Compound concentration 1000.0 nM
[41] = molecular target: Cyclin-dependent kinase 2 (Homo sapiens) (UniProt P24941); details: Compound concentration 1000.0 nM
[42] = system: Serine/threonine-protein kinase B-raf (Homo sapiens), P15056 [V600E]; details: Compound concentration 1000.0 nM
[43] = system: Hepatocyte growth factor receptor (Homo sapiens), P08581 [Y1235D]; details: Compound concentration 1000.0 nM
[44] = molecular target: Serine/threonine-protein kinase ULK1 (Homo sapiens) (UniProt O75385); details: Compound concentration 1000.0 nM

Sequence of Ephrin type-B receptor 4 (Homo sapiens) (P54760 whole entry, canonical isoform): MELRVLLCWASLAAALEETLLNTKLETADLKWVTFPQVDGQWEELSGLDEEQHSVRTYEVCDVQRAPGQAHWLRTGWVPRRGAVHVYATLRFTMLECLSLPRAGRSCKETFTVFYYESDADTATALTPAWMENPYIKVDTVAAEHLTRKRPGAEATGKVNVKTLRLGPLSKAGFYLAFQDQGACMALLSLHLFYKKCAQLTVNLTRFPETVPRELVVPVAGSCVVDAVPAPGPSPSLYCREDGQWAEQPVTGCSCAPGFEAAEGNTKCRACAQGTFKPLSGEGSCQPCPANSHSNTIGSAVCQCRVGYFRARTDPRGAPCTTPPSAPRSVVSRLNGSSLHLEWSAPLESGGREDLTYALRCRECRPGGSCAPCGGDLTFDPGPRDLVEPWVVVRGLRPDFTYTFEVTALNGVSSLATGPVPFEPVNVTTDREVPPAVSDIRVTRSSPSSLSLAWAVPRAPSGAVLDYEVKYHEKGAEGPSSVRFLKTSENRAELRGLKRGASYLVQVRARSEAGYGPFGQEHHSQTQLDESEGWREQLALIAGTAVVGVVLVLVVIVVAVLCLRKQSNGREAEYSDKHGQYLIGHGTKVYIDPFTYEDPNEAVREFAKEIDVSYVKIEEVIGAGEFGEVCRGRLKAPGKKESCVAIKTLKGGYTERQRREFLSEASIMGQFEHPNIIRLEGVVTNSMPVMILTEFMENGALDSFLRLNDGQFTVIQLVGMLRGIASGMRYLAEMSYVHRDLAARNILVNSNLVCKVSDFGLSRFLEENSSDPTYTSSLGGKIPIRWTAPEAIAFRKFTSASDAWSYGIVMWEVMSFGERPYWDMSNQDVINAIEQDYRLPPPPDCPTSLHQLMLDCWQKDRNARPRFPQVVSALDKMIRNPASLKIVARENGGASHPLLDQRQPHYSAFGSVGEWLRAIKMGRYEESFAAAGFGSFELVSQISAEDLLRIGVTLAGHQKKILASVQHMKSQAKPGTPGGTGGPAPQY

Compound: CS(=O)(=O)NCC[C@H](NC(=O)c1cncc2c1cnn2-c1ccc(F)cc1)c1ccnc(S(C)(=O)=O)c1 [BI 9307]
- residual activity [1]: 100%
- residual activity [2]: 93%
- residual activity [3]: 100%
- residual activity [4]: 73%
- residual activity [5]: 99%
- inhibition [6]: -5.26%
- residual activity [7]: 100%
- residual activity [8]: 100%
- residual activity [9]: 90%
- inhibition [10]: 8.79%
- residual activity [11]: 100%
- residual activity [12]: 93%
- residual activity [13]: 100%
- residual activity [14]: 91%
- residual activity [15]: 96%
- residual activity [16]: 99%
- inhibition [17]: 23.5%
- residual activity [18]: 100%
- residual activity [19]: 100%
- residual activity [20]: 82%
- residual activity [21]: 77%
- residual activity [22]: 100%
- residual activity [23]: 100%
- residual activity [24]: 86%
- residual activity [25]: 100%
- residual activity [26]: 100%
- residual activity [27]: 96%
- residual activity [28]: 82%
- inhibition [29]: 0.74%
- residual activity [30]: 100%
- residual activity [31]: 100%
- residual activity [32]: 100%
- residual activity [33]: 100%
- inhibition [34]: 25.3%
- residual activity [35]: 100%
- residual activity [36]: 100%
- residual activity [37]: 71%
- residual activity [38]: 100%
- residual activity [39]: 96%
- residual activity [40]: 100%
- residual activity [41]: 100%
- residual activity [42]: 100%
- residual activity [43]: 93%
- residual activity [44]: 100%

Compound: CS(=O)(=O)c1cc(C2(NC(=O)c3cncc4c3cnn4-c3ccc(F)cc3)CC2)ccn1 [BI 639667]
- residual activity [1]: 94%
- residual activity [2]: 99%
- residual activity [3]: 100%
- residual activity [4]: 66%
- residual activity [5]: 99%
- inhibition [6]: 6.62%
- residual activity [7]: 100%
- residual activity [8]: 84%
- residual activity [9]: 100%
- inhibition [10]: 14.8%
- residual activity [11]: 91%
- residual activity [12]: 100%
- residual activity [13]: 100%
- residual activity [14]: 100%
- residual activity [15]: 100%
- residual activity [16]: 100%
- inhibition [17]: 6.63%
- residual activity [18]: 100%
- residual activity [19]: 98%
- residual activity [20]: 91%
- residual activity [21]: 100%
- residual activity [22]: 100%
- residual activity [23]: 75%
- residual activity [24]: 43%
- residual activity [25]: 100%
- residual activity [26]: 100%
- residual activity [27]: 97%
- residual activity [28]: 74%
- inhibition [29]: 1.68%
- residual activity [30]: 100%
- residual activity [31]: 61%
- residual activity [32]: 81%
- residual activity [33]: 56%
- inhibition [34]: 22.5%
- residual activity [35]: 100%
- residual activity [36]: 75%
- residual activity [37]: 100%
- residual activity [38]: 100%
- residual activity [39]: 95%
- residual activity [40]: 87%
- residual activity [41]: 94%
- residual activity [42]: 94%
- residual activity [43]: 91%
- residual activity [44]: 100%
